Article PMC1968602 (British Journal of Cancer, 1993)
Values joined by “and” are separate entries in the source; they are usually repeats but may differ in a detail not shown here. Equal values may be shown once. Read-outs that look alike come from different tables or passages of the source.

Key:
[1] = test system: patients with advanced lung cancer
Description: All subjects gave written informed consent to the study. […] The study was approved in advance by this hospital's Institu- tional Review Board. […] Patients who stabilised or improved received at least a second course while patients with obvious evidence of disease progression were removed from the study. Before the next course was started, the leukocyte count had to be at least 4,000fil-', and the platelet count had to be at least 100,00011-. If more than 6 weeks passed from the time of the last treatment before these criteria were satisfied, the patients were removed from the study. No intrapatient dose escalation was performed. Once the maximum tolerated dose was reached (90 mg m-2), five additional patients were treated at the preceding dose level of 80mgm2. Evaluation The stage of disease was determined by a complete medical history and physical examination, routine chest radiography, whole-lung tomography, bone scintiscanning, computed tomography of the head, chest, and abdomen, and fiberoptic bronchoscopy. Bone marrow aspiration was also performed in SCLC patients. […] Prior to the first course of treatment, a complete blood count (includ- ing a differential white cell count and platelet count), biochemistry tests (renal and hepatic function, and elec- trolytes), and urinalysis were performed. Then the blood count, biochemistry tests, urinalysis, and chest X-rays were repeated at least once a week after this initial evaluation. Other investigations were repeated as necessary to evaluate marker lesions. After the completion of chemotherapy, each patient was restaged with all the tests used during the initial work-up. The eligibility, evaluability and response of each patient were assessed by extramural reviewers. […] The duration of each response was defined as the number of days from the documentation of response until tumour progression. ECOG common toxicity criteria were used to grade organ damage. The maximum tolerated dose was defined as the dose causing grade 3-4 nonhematologic toxicity (except nausea and vomiting) in at least one-third of the cycles and/or grade 3-4 hematologic toxicity in at least two-third of the cycles included at that level. […] The statistical significance of differ- ences in peak plasma concentrations (Cmax) was determined using unpaired, two-tailed Student's t test. Other statistical analysis was performed using Chi-square test or Fisher's exact test. A P value of less than 0.05 was considered to be statistically significant.

advanced lung cancer = test: Tumour response (World Health Organization criteria) to CPT-11 plus cisplatin; type: in vivo, human
Description: (§1) All subjects gave written informed consent to the study. […] No intrapatient dose escalation was performed. […] Bone marrow aspiration was also performed in SCLC patients. […] Arrows indicate the com- pletion of infusion.

[2] = test system: patients with advanced NSCLC; conditions: ref Masuda et al., 1992b, cited from earlier work
[3] = ref Negoro et al., 1991a, cited from earlier work; for AUC of CPT-11: single agent weekly infusion
[4] = Plasma pharmacokinetics of CPT-11 and SN-38 (HPLC), day 8 of first cycle
Description: as §1

[5] = test system: diarrhea induced by this combination regimen; test: Antidiarrheal treatment of diarrhea induced by CPT-11 plus cisplatin; type: in vivo, human; conditions: for response of grade 3 diarrhea to antidiarrheal agent: diarrhea at CPT-11 90 mg m-2 plus cisplatin 60 mg m-2
Description: as §1

[6] = CPT-11 60 mg m-2 plus cisplatin 60 mg m-2, 3 patients
[7] = CPT-11 80 mg m-2 plus cisplatin 60 mg m-2
[8] = CPT-11 80 mg m-2 plus cisplatin 60 mg m-2, 8 patients
[9] = CPT-11 90 mg m-2 plus cisplatin 60 mg m-2
[10] = CPT-11 plus cisplatin 60 mg m-2, 28-day cycle
[11] = all dose levels, CPT-11 plus cisplatin 60 mg m-2
[12] = dose level 1 (CPT-11 60 mg m-2), individual responders
[13] = dose level 2 (CPT-11 80 mg m-2)
[14] = dose level 3 (CPT-11 90 mg m-2), one responder

CCc1c2c(nc3ccc(OC(=O)N4CCC(N5CCCCC5)CC4)cc13)-c1cc3c(c(=O)n1C2)COC(=O)[C@]3(O)CC [CPT-11, Irinotecan]
Grade 3 leukopenia, percentage of courses ([1]; CPT-11 60 mg m-2 plus cisplatin 60 mg m-2): 33% | ECOG grade 3 or 4 diarrhea: number of patients exhibiting toxicity in the first course [1, 6]: 0 | ECOG grade 3 or 4 leukopenia: number of patients exhibiting toxicity in the first course [1, 6]: 2 | ECOG grade 3 or 4 diarrhea: no. of courses exhibiting toxicity in all courses ([1]; CPT-11 60 mg m-2 plus cisplatin 60 mg m-2, 9 courses): 0 | Grade 3 leukopenia, percentage of courses [1, 7]: 15% | grade 4 diarrhea [1, 7]: no grade 4 diarrhea | ECOG grade 3 or 4 diarrhea: number of patients exhibiting toxicity in the first course [1, 8]: 2 | ECOG grade 3 or 4 leukopenia: number of patients exhibiting toxicity in the first course [1, 8]: 2 | ECOG grade 3 or 4 diarrhea: no. of courses exhibiting toxicity in all courses ([1]; CPT-11 80 mg m-2 plus cisplatin 60 mg m-2, 20 courses): 3 | skin rash (grade 1), number of patients ([1]; CPT-11 80 mg m-2 plus cisplatin 60 mg m-2, forced cessation of CPT-11 on day 15): one | grade 3 diarrhea, percentage of cycles ([1]; CPT-11 80 mg m-2 plus cisplatin 60 mg m-2, three of 20 cycles): 15% | grade 3 diarrhea, percentage of patients ([1]; CPT-11 80 mg m-2 plus cisplatin 60 mg m-2, two of eight patients): 25% | dose-limiting toxicity ([1]; CPT-11 90 mg m-2 dose level plus cisplatin 60 mg m-2): diarrhea | Grade 3 leukopenia, percentage of courses [1, 9]: 0% | duration of grade 3 diarrhea [1, 9]: 2 to 3 weeks | grade 4 diarrhea [1, 9]: no grade 4 diarrhea | ECOG grade 3 or 4 leukopenia: number of patients exhibiting toxicity in the first course ([1]; CPT-11 90 mg m-2 plus cisplatin 60 mg m-2, 3 patients): 0 | maximum tolerated dose of CPT-11 ([1]; CPT-11 i.v. days 1, 8, 15 plus cisplatin 60 mg m-2 day 1, every 28 days): 90 mg m-2 | leukocyte nadir [1, 10]: ~21 days | recovery from leukocyte nadir in most patients [1, 10]: ≤ 29 days | recommended dose for Phase II studies ([1]; CPT-11 days 1, 8, 15 plus cisplatin day 1 at 4-week intervals): 80 mg m-2 | Grade 3 leukopenia, number of patients ([1]; all dose levels, CPT-11 60-90 mg m-2 plus cisplatin 60 mg m-2, 14 patients): five | Grade 3 leukopenia, number of cycles ([1]; all dose levels, CPT-11 60-90 mg m-2 plus cisplatin 60 mg m-2, 33 courses): six | Hematologic toxicity [1, 11]: relatively mild | grade 4 leukopenia, patients [1, 11]: none | hepatic, renal, or pulmonary toxicity [1, 11]: no evidence | Grade 3 nausea and vomiting, percentage of courses ([1]; all dose levels, 10 of 33 courses): 30% | Grade 2 alopecia, percentage of courses ([1]; all dose levels, 15 of 33 courses): 45% | Transient eosinophilia ( > 10%), percentage of courses ([1]; all dose levels, seven of 33 courses): 21% | Grade 3 anaemia, percentage of courses ([1]; all dose levels, two occasions in 33 courses): 6% | patients showing disease progression (advanced lung cancer; all 14 patients): none | patients showing no change (advanced lung cancer; all 14 patients): Eight | overall response rate (advanced lung cancer; all 14 patients, CPT-11 60-90 mg m-2 plus cisplatin 60 mg m-2): 43% | Response duration (advanced lung cancer; [12]): 85 days and 170 days | Time to remission (advanced lung cancer; [12]): 42 days and 44 days | No. of responders (%), response rate (advanced lung cancer; dose level 1: CPT-11 60 mg m-2 plus cisplatin 60 mg m-2, two of three patients): 67% | Response duration, median (range) (advanced lung cancer; [13]): 158 (92-208) days | Time to remission, median (range) (advanced lung cancer; [13]): 41 (30-42) days | No. of responders (%), response rate (advanced lung cancer; dose level 2: CPT-11 80 mg m-2 plus cisplatin 60 mg m-2, three of eight patients): 38% | Response duration (advanced lung cancer; [14]): 98 days | Time to remission (advanced lung cancer; [14]): 30 days | No. of responders (%), response rate (advanced lung cancer; dose level 3: CPT-11 90 mg m-2 plus cisplatin 60 mg m-2, one of three patients): 33% | partial responses (advanced lung cancer; five of 14 patients): 36% | response rate for NSCLC (advanced lung cancer; four of 12 patients): 33% | complete response (advanced lung cancer; one of 14 patients): 7% | complete response, stage IIIB disease (advanced lung cancer; one of seven patients): 14% | overall response rate, stage IIIB disease (advanced lung cancer; seven patients): 43% | partial response, stage IV disease (advanced lung cancer; three of seven patients): 43% | Response duration, median (range) (advanced lung cancer; total, all dose levels): 128 (85-208) days | Time to remission, median (range) (advanced lung cancer; total, all dose levels): 42 (30-44) days | partial responses, stage IIIB disease (advanced lung cancer; two of seven patients): 29% | response rate for SCLC (advanced lung cancer; two of two patients): 100% | response rate ([2]; CPT-11 days 1, 8, 15 combined with 80 mg m-2 cisplatin day 1, 4-week intervals, advanced NSCLC): 54% | dose-limiting toxicities ([2]; combined with 80 mg m-2 cisplatin): leukopenia and diarrhea | recommended dose of CPT-11 ([2]; in combination with 80 mg m-2 of cisplatin, days 1, 8, 15): 60 mg m-2 | AUC of CPT-11 ([3]; 50 mg m-2): 2.97 ytg ml-' x hours | AUC of CPT-11 ([3]; 100 mg m-2): 6.37 ytg ml-' x hours | AUC of CPT-11 ([3]; 125 mg m-2): 9.17 ytg ml-' x hours | AUC of CPT-11 ([3]; 150 mg m-2): 11.29 ytg ml-' x hours | dose intensity achieved as a single agent ([3]; weekly intravenous infusion): 100 mg m-2 per week | Elimination of CPT-11 from plasma ([4]; after completion of infusion, two-compartment model): biphasic

CCc1c2c(nc3ccc(O)cc13)-c1cc3c(c(=O)n1C2)COC(=O)[C@]3(O)CC [SN-38, 7-ethyl-10-hydroxycamptothecin]
AUC of SN-38 ([3]; single-agent CPT-11 50 mg m-2): 117 ng ml-1 x hours | AUC of SN-38 ([3]; single-agent CPT-11 125 mg m-2): 252 ng ml-1 x hours | AUC ([4]; human, in vivo, 80 mg): 216 ng·h/mL | AUC ([4]; human, in vivo, 90 mg): 340 ng·h/mL | SN-38 terminal half-life, mean (s.d.) ([4]; human, in vivo, 90 mg): 22.13 ? 13.28 h | half-life ([4]; human, in vivo, 90 mg): 22.1 ± 13.3 h

CN1[C@@H]2CC[C@H]1C[C@@H](OC(=O)C(CO)c1ccccc1)C2 (stereo partly drawn) [atropine]
response of grade 3 diarrhea to antidiarrheal agent [5]: refractory

COc1ccc2c3c1O[C@H]1[C@@H](O)C=C[C@H]4[C@@H](C2)N(C)CC[C@@]341 [codeine phosphate]
response of grade 3 diarrhea to antidiarrheal agent [5]: resistant

CN1[C@@H]2C[C@@H](OC(=O)[C@H](CO)c3ccccc3)C[C@H]1[C@@H]1O[C@@H]12 [scopolamine]
response of grade 3 diarrhea to antidiarrheal agent [5]: refractory

albumin tannate
response of grade 3 diarrhea to antidiarrheal agent [5]: refractory

sandostatin
effect on grade 3 diarrhea induced by CPT-11 plus cisplatin ([5]; 50-100 ug subcutaneously t.i.d. for at least 2 days, three patients): ineffective
